# Laboratory results: publication PMC5177923 (2016)
# What was measured:
# [1] = tested on: hTeloCFRET (DNA, i motif) TAACCCTAACCCTAACCCTAACCC; assay: FRET melting; conditions: 100 mM NaCl; 10 mM sodium cacodylate pH 6; 10 μM compound, 200 nM DNA
# [2] = tested on: hTeloGFRET (DNA, G4) GGGTTAGGGTTAGGGTTAGGG; assay: FRET melting; conditions: 100 mM NaCl; 10 mM sodium cacodylate pH 7.4; 10 μM compound, 200 nM DNA
# [3] = tested on: DSFRET (DNA, hairpin, HEG(18) linker (non-nucleotide) between 10 and 11) TATAGCTATATATAGCTATA; assay: FRET melting; conditions: 100 mM NaCl; 10 mM sodium cacodylate pH 7.4; 10 μM compound, 200 nM DNA
# [4] = tested on: DSBiotin (DNA, duplex) GGCATAGTGCGTGGGCGTTAGC/GCTAACGCCCACGCACTATGCC; assay: SPR, equilibrium affinity fit, 1:1 model; conditions: 100 mM NaCl; 10 mM sodium cacodylate pH 5.5, 0.05% Tween-20, 5% DMSO, 25 °C
# [5] = tested on: c-mycBiotin (DNA, i motif) CCTTCCCCACCCTCCCCACCCTCCCCA; assay: SPR, equilibrium affinity fit, 1:1 model; conditions: 100 mM NaCl; 10 mM sodium cacodylate pH 5.5, 0.05% Tween-20, 5% DMSO, 25 °C
# [6] = tested on: hTeloC (DNA, i motif) TAACCCTAACCCTAACCCTAACCC; assay: circular dichroism; conditions: 100 mM NaCl; 10 mM sodium cacodylate pH 5.5, 20 °C
# [7] = tested on: hTeloCBiotin (DNA, i motif) TAACCCTAACCCTAACCCTAACCC; assay: SPR, equilibrium affinity fit, 1:1 model; conditions: 100 mM NaCl; 10 mM sodium cacodylate pH 5.5, 0.05% Tween-20, 5% DMSO, 25 °C
Structure (SMILES),ΔTm [1],ΔTm [2],∆Tm [3],Kd [4],Kd [5] [µM],binding [6],Kd [7] [µM],∆Tm [2]
CN(C)CCNc1cccc2c1C(=O)c1cccc(NCCNc3ccccc3)c1C2=O,+17 °C,+0.4 °C,,,,,,
O=C1c2c(O)ccc(O)c2C(=O)c2c(NCCNCCO)ccc(NCCNCCO)c21,,,+6.4 °C,~ 71 ± 22 μM,12 ± 3,yes,12 ± 3,+16 °C
